Legend:
Ornithine Decarboxylase = test: Ornithine decarboxylase (ODC) assay: inhibition of TPA-induced ODC induction in mouse skin; assay type: in vivo, mouse (female Charles River CD-1); conditions: topical, 1 hour before TPA (17 nmol)
Procedure: (§1) The ODC assay measures a compound's ability to prevent the induction of ODC. The tracheal organ culture assay measures a compound's ability to reverse keratinization.
The ODC assay is carried out as follows. Female Charles River CD-1 mice from Charles River Breeding Laboratories, Wilmington, Mass., are used (age 7 to 9 weeks). The dorsal hair of the mice is shaved 1 to 2 days before testing, and only mice showing no hair regrowth are used. A single dose of 12-O-tetradecanoylphorbol-13-acetate (TPA) (10.5 μg, 17 nmol) in 0.2 mL of acetone is applied topically to the back of each mouse. The test compound, at one of three dose levels (1.7, 17 and 170 nmol), dissolved in 0.2 mL of acetone is applied 1 hour before the TPA treatment to the test groups; the control group is treated with acetone alone. The mice are killed by cervical dislocation five hours after TPA treatment. Determinations are done in triplicate.
The epidermis is obtained from the sacrificed animals. To obtain sufficient material, the dorsal skins from 2 to 3 mice in each treatment group are pooled. The depilatory agent Nudit® (Helena Rubinstein, New York) is applied to the shaved area of the skin; after 5 minutes, it is washed off thoroughly with cold tap water. Then the skin is excised and plunged immediately into ice-cold water; it is then placed in a 55° C. water bath for 30 seconds and reimmersed in ice-cold water for at lease another 30 seconds. The skin is placed epidermis side up on a cold plate, and the epidermis is scraped off with a razor blade. The pooled epidermal sheets are homogenized (Polytron PT-10 homogenizer) at 0° to 4° C. for 15-20 seconds in 50 mM sodium phosphate and 0.1 mM ethylenediaminetetraacetic acid (EDTA), at a volume of 1 mL/skin.
The supernatant fraction remaining after centrifugation of the homogenate at 10,000×g for 30 seconds at 0° C. is used for the enzyme assay. Enzyme activity is determined using the microassay for ODC as described by Verma and Boutwell to measure the release of ^14 CO2 from DL-[1-^14 C]-ornithine (58 mCi/mmol) after incubation with the 10,000×g supernatant. The incubations are carried out by decanting, with a Pasteur pipette, 100 μL of the supernatant containing 100 to 120 μg of protein into two or three 15-mL Corex tubes in a shaking water bath at 37° C. The assay mixture in the tubes consists of 50 μL of 100 mM sodium phosphate buffer (pH 7.2), 10 μL of 4 mM pyridoxal phosphate, 40 μL of 25 mM dithiothreitol, and 1 μL of 0.1 M EDTA. The center wells in the tubes are filled with 200 μL of a 2:1 solution (v/v) of ethanolamine:2-methoxyethanol. The reaction is started by adding 50 μL of substrate (0.5 μCi of DL-[1-^14 C]-ornithine in 2 mM cold ornithine) at 1-minute intervals by injection to each of the stoppered tubes. Incubations are routinely carried out at 37° C. for 30 to 60 minutes. The reaction is stopped by addition of 0.5 ml of 2 M citric acid, and incubation is continued for an additional hour without heating to ensure complete absorption of ^14 CO2.
Radioactivity is measured using a toluene-based scintillant (4 g of PPO and 50 mg of POPOP/L of toluene) in a Beckman LS-250 liquid scintillation counter. Enzyme activity is determined in triplicate and expressed as nanomoles of CO2 released in 30 minutes per milligram of protein. Enzyme activity is linear for the protein concentration used. The protein concentrations of the epidermal extracts are determined by the Lowry procedure, using bovine serum albumin as the standard.

[1] = tested on: Hamster Tracheal Organ Culture; test: Reversal of keratinization in hamster tracheal organ culture; assay type: cell-based
Procedure: as §1
The tracheal organ culture assay is carried out as follows. Tracheas are taken from hamsters that are in very early stages of vitamin A deficiency and placed in organ culture. At the time of culture, the animals are still gaining weight; the tracheal epithelium is generally low columnar or cuboidal, with only occasional patches of squamous metaplasia. Each trachea is opened from the larynx to the carina along the membranous dorsal wall and cultured in a serum-free medium (CMRL-1066; with crystalline bovine insulin, 0.1 μg/ml; hydrocortisone hemisuccinate, 0.1 μg/ml; glutamine, 2 mM; penicillin, 100 units/ml; and streptomycin,100 μg/ml, added). Cultures are gassed with 50% oxygen, 45% nitrogen, and 5% CO2. The culture dishes are rocked at 35.5-36.0 degrees to allow the tracheas contact with both gas and medium. All tracheas are grown in medium containing no retinoid for the first 3 days. At the end of 3 days, some tracheas are harvested; almost all of these tracheas have significant squamous metaplasia, and approximately 60% have keratinized lesions. The remaining tracheas are then divided into different groups which are treated with either: (1) retinoid dissolved in dimethylsulfoxide (final concentration of DMSO in culture medium is never greater than 0.1%) or (2) an equivalent amount of DMSO alone. Culture medium is changed three times a week, and all of the remaining tracheas are harvested at the end of 10 days in culture. Tracheas are fixed in 10% buffered formalin and embedded in paraffin. Cross sections of five micrometers are made through the mid-portion, stained with hematoxylin and eosin, and then scored with a microscope for the presence of keratin and keratohyaline granules, both of which are found in approximately 90% of control cultures that received no retinoid for the entire 10 day culture period.

| Structure (SMILES) | Inhibition of Induction of Ornithine Decarboxylase by 12-O-Tetradecanoylphorbol-13-acetate in Mouse Skin, % Inhibition of Control (Ornithine Decarboxylase; Dose 1.7 nmol) | Inhibition of Induction of Ornithine Decarboxylase by 12-O-Tetradecanoylphorbol-13-acetate in Mouse Skin, % Inhibition of Control (Ornithine Decarboxylase; Dose 17 nmol) | Reversal of Keratinization, Active/Total Cultures ([1]; Conc 10^-8 M) | Reversal of Keratinization, Active/Total Cultures (%) ([1]; Conc 10^-8 M) | Reversal of Keratinization, Active/Total Cultures ([1]; Conc 10^-9 M) | Reversal of Keratinization, Active/Total Cultures (%) ([1]; Conc 10^-9 M) | Reversal of Keratinization, Active/Total Cultures ([1]; Conc 10^-10 M) | Reversal of Keratinization, Active/Total Cultures (%) ([1]; Conc 10^-10 M) |
| --- | --- | --- | --- | --- | --- | --- | --- | --- |
| CC1=C(/C=C/c2ccc3cc(C=O)ccc3c2)C(C)(C)CCC1 [Example 1, (E)-6-[2-(2,6,6-trimethyl-1-cyclohexen-1-yl)ethenyl]-2-naphthaldehyde] | 0% | 45% | 15/16 | 94% | 7/14 | 50% | 4/14 | 28% |
| CC1=C(/C=C/c2ccc3cc(C(=O)O)ccc3c2)C(C)(C)CCC1 [Example 3, 6-[2-(2,6,6-trimethyl-1-cyclohexen-1-yl)ethenyl]-2-naphthoicacid] | 30% | 48% | 7/7 | 100% | 7/7 | 100% | 3/7 | 43% |
| CCOC(=O)c1ccc(/C=C(C)/C=C/C2=C(C)CCCC2(C)C)o1 [Example 4, (E)-1-(5-Carbethoxy-2-furanyl)-2-methyl-4-(2,6,6-trimethyl-1-cyclohexen-1-yl)-1,3-butadiene] | 9% | 9% | 2/7 | 29% | 2/7 | 29% | 2/6 | 33% |
| CC1=C(/C=C/C(C)=C/c2ccc(C(=O)O)o2)C(C)(C)CCC1 [Example 5, (E)-1-(5-carboxy-2-furanyl)-2-methyl-4-(2,6,6-trimethyl-1-cyclohexen-1-yl)-1,3-butadiene] | 7% | 5% | 3/6 | 50% | 3/7 | 43% | 3/7 | 43% |
| CCOC(=O)c1ccc(/C=C(C)/C=C/C2=C(C)CCCC2(C)C)s1 [Example 6, (E)-1-(5-Carbethoxythien-2-yl)-2-methyl-4-(2,6,6-trimethyl-1-cyclohexen-1-yl)-1,3-butadiene] | 67% | 77% | 13/13 | 100% | 10/14 | 71% | 6/14 | 43% |
| CC1=C(/C=C/C(C)=C/c2ccc(C(=O)O)s2)C(C)(C)CCC1 [Example 8, (E)-1-(5-carboxythien-2-yl)-2-methyl-4-(2,6,6-trimethyl-1-cyclohexen-1-yl)-1,3-butadiene] | 42% | 67% | 15/15 | 100% | 14/15 | 93% | 7/15 | 47% |

Source: patent US4456618A, “Naphthenic and heterocyclic retinoic acid analogues” (SRI International, priority 1982, dated 1984)
